According to patent publication US7691382B2, “Antiviral polypeptides comprising tandem repeats of APOE 141-149 and variants thereof” (priority 2003, dated 2010):
Peptide text beside a SMILES is read from it.

Key:
HSV2 clinical isolates = format: cell-based, Human herpes simplex virus type 2
Experimental: Plaque assays were performed. The methodology was as described in previous Examples for HSV1 plaque assays (including usage of Vero cells) except HSV2 clinical isolates (provided by Prof. Anthony Hart of Liverpool University) were employed instead.

HSV1 = format: cell-based, Human herpes simplex virus type 1; conditions: for efficacy for reducing HSV1 infectivity (in words): Examples 2 and 3
Summary of the method: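 Plaque reduction in Vero monolayers: ~100 pfu HSV1 pre-mixed 10 min at 37 °C with acetylated/amidated peptides in 0.5% FCS medium, inoculated 60–80 min, then carboxymethylcellulose overlay for 22 or 40 h. Plaques counted after fixing and carbol fuchsin staining; IC50 from % of control versus peptide concentration.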

HIV-1 111B = HIV-1 111B in C8166 T-cells, syncytia and gp120 ELISA; format: cell-based, Human Immunodeficiency Virus; conditions: 5 days, read-out: IC50 for inhibiting HIV-1 growth
Experimental: Peptides (prepared as described previously) were diluted in 50 μl aliquots and mixed with T-cells (C8166) at 40,000 cells per well. Next HIV-1 111B was added at a multiplicity of infection (MOI) of 0.01, and the mixture incubated for 5 days at 37° C. Syncytia formation was assessed visually using an inverting microscope, and viral gp120 levels in supernatants assessed by a gp120 ELISA using GNA for antigen capture. 96-well plates coated with 50 ul GNA (Galanthus nivalis) were washed, then treated with 100 μl RPMI (10% foetal calf serum) and left for one hour. After further washing, 25 μl test sample supernatants were added to wells, along with dilutions of infected control samples. After lysis by 3 hr treatment with 0.5% Empigen (detergent used to lyse virus) to all wells, and washing, 50 μl of human anti-HIV sera was added, and plates incubated overnight. After further washing, 50 μl of a 1000× dilution of anti-human Ig peroxidase conjugate was added, and plates incubated at 37° C. for 90 min. After a final wash, 50 ul peroxidase substrate was added to each well, and plates incubated for 10-30 min. Reaction was stopped with 25 μl 2M H2SO4, and A450 measured.

HIV-1 = conditions: NP2 glioma cells, peptide 0.1 to 10 micromolar
Experimental: The glioma cell line NP2 over-expressing both CD4 and the appropriate co-receptor (CCR5 or CXCR4) were maintained in DMEM supplemented with 10% FCS. 2×10^4 cells were plated per well of a 48-well plate 24 h prior to infection and grown at 37 C. The cells were then washed, and incubated in DMEM/FCS containing peptide concentrations ranging from 0.1 to 10 micromolar, at 37 C for 30 minutes. 200 focus-forming units of HIV-1 stocks were then added to each well, and the cells incubated at 37 C for a further 2 hours. The cells were then washed twice in PBS and fresh medium replaced. After 3 day's growth the cells were fixed in cold methanol:acetone, and stained in situ for expression of HIV-1 p24 using a monoclonal anti-p24 followed by a secondary anti-mouse beta-galactosidase conjugate. Expression was visualised by X-Gal staining and infectious foci enumerated by light-microscopy.

Row | IC50 (HSV2 clinical isolates) [µM] | IC50 (HSV1) [µM] | SMILES | efficacy for reducing HSV1 infectivity (in words) (HSV1) | IC50 (HIV-1 111B) [µM] | anti-HIV activity (in words) (HIV-1)
1 | 6.5 | 12.5 | CC(=O)N[C@@H](CC(C)C)C(=O)N[C@@H](CCCNC(=N)N)C(=O)N[C@@H](CCCCN)C(=O)N[C@@H](CC(C)C)C(=O)N[C@@H](CCCNC(=N)N)C(=O)N[C@@H](CCCCN)C(=O)N[C@@H](CCCNC(=N)N)C(=O)N[C@@H](CC(C)C)C(=O)N[C@@H](CC(C)C)C(=O)N[C@@H](Cc1c[nH]c2ccccc12)C(=O)N[C@@H](CCCNC(=N)N)C(=O)N[C@@H](CCCCN)C(=O)N[C@@H](Cc1c[nH]c2ccccc12)C(=O)N[C@@H](CCCNC(=N)N)C(=O)N[C@@H](CCCCN)C(=O)N[C@@H](CCCNC(=N)N)C(=O)N[C@@H](Cc1c[nH]c2ccccc12)C(=O)N[C@@H](Cc1c[nH]c2ccccc12)C(N)=O [MU 111] (Ac-LRKLRKRLLWRKWRKRWW-NH2) | – | – | –
2 | 16 | > 20 | CC(=O)N[C@@H](CC(C)C)C(=O)N[C@@H](CCCNC(=N)N)C(=O)N[C@@H](CCCCN)C(=O)N[C@@H](CC(C)C)C(=O)N[C@@H](CCCNC(=N)N)C(=O)N[C@@H](CCCCN)C(=O)N[C@@H](CCCNC(=N)N)C(=O)N[C@@H](CC(C)C)C(=O)N[C@@H](CC(C)C)C(=O)N[C@@H](CC(C)C)C(=O)N[C@@H](CCCNC(=N)N)C(=O)N[C@@H](CCCCN)C(=O)N[C@@H](CC(C)C)C(=O)N[C@@H](CCCNC(=N)N)C(=O)N[C@@H](CCCCN)C(=O)N[C@@H](CCCNC(=N)N)C(=O)N[C@@H](Cc1c[nH]c2ccccc12)C(=O)N[C@@H](Cc1c[nH]c2ccccc12)C(N)=O [MU 112] (Ac-LRKLRKRLLLRKLRKRWW-NH2) | – | – | –
3 | < 3.3 | 2.5 | CC(=O)N[C@@H](Cc1c[nH]c2ccccc12)C(=O)N[C@@H](CCCNC(=N)N)C(=O)N[C@@H](CCCCN)C(=O)N[C@@H](Cc1c[nH]c2ccccc12)C(=O)N[C@@H](CCCNC(=N)N)C(=O)N[C@@H](CCCCN)C(=O)N[C@@H](CCCNC(=N)N)C(=O)N[C@@H](Cc1c[nH]c2ccccc12)C(=O)N[C@@H](Cc1c[nH]c2ccccc12)C(=O)N[C@@H](CCCNC(=N)N)C(=O)N[C@@H](Cc1c[nH]c2ccccc12)C(=O)N[C@@H](CCCNC(=N)N)C(=O)N[C@@H](CCCCN)C(=O)N[C@@H](Cc1c[nH]c2ccccc12)C(=O)N[C@@H](CCCNC(=N)N)C(=O)N[C@@H](CCCCN)C(=O)N[C@@H](CCCNC(=N)N)C(=O)N[C@@H](Cc1c[nH]c2ccccc12)C(=O)N[C@@H](Cc1c[nH]c2ccccc12)C(=O)N[C@@H](CCCNC(=N)N)C(N)=O [MU 83] (Ac-WRKWRKRWWRWRKWRKRWWR-NH2) | – | – | –

The next lines start with the compound.

Row | SMILES | IC50 (HSV2 clinical isolates) [µM] | IC50 (HSV1) [µM] | efficacy for reducing HSV1 infectivity (in words) (HSV1) | IC50 (HIV-1 111B) [µM] | anti-HIV activity (in words) (HIV-1)
4 | CC(=O)N[C@@H](Cc1c[nH]c2ccccc12)C(=O)N[C@@H](CCCNC(=N)N)C(=O)N[C@@H](CCCCN)C(=O)N[C@@H](Cc1c[nH]c2ccccc12)C(=O)N[C@@H](CCCNC(=N)N)C(=O)N[C@@H](CCCCN)C(=O)N[C@@H](CCCNC(=N)N)C(=O)N[C@@H](Cc1c[nH]c2ccccc12)C(=O)N[C@@H](Cc1c[nH]c2ccccc12)C(=O)N[C@@H](CC(C)C)C(=O)N[C@@H](CCCNC(=N)N)C(=O)N[C@@H](CCCCN)C(=O)N[C@@H](CC(C)C)C(=O)N[C@@H](CCCNC(=N)N)C(=O)N[C@@H](CCCCN)C(=O)N[C@@H](CCCNC(=N)N)C(=O)N[C@@H](CC(C)C)C(=O)N[C@@H](CC(C)C)C(N)=O [GIN 34] (Ac-WRKWRKRWWLRKLRKRLL-NH2) | < 3.3 | 6 | also had efficacy | – | –
5 | CC(=O)N[C@@H](Cc1c[nH]c2ccccc12)C(=O)N[C@@H](CCCNC(=N)N)C(=O)N[C@@H](CCCCN)C(=O)N[C@@H](Cc1c[nH]c2ccccc12)C(=O)N[C@@H](CCCNC(=N)N)C(=O)N[C@@H](CCCCN)C(=O)N[C@@H](CCCNC(=N)N)C(=O)N[C@@H](Cc1c[nH]c2ccccc12)C(=O)N[C@@H](CCCNC(=N)N)C(=O)N[C@@H](CCCCN)C(=O)N[C@@H](Cc1c[nH]c2ccccc12)C(=O)N[C@@H](CCCNC(=N)N)C(=O)N[C@@H](CCCCN)C(=O)N[C@@H](CCCNC(=N)N)C(N)=O [GIN 32] (Ac-WRKWRKRWRKWRKR-NH2) | 6.25 | 10 | also had efficacy | 7.5 | –
6 | CC(=O)N[C@@H](CC(C)C)C(=O)N[C@@H](CCCNC(=N)N)C(=O)N[C@@H](CCCCN)C(=O)N[C@@H](CC(C)C)C(=O)N[C@@H](CCCNC(=N)N)C(=O)N[C@@H](CCCCN)C(=O)N[C@@H](CCCNC(=N)N)C(=O)N[C@@H](CC(C)C)C(=O)N[C@@H](CC(C)C)C(=O)N[C@@H](CC(C)C)C(=O)N[C@@H](CCCNC(=N)N)C(=O)N[C@@H](CCCCN)C(=O)N[C@@H](CC(C)C)C(=O)N[C@@H](CCCNC(=N)N)C(=O)N[C@@H](CCCCN)C(=O)N[C@@H](CCCNC(=N)N)C(=O)N[C@@H](CC(C)C)C(=O)N[C@@H](CC(C)C)C(N)=O [GIN 1p] (Ac-LRKLRKRLLLRKLRKRLL-NH2) | – | – | had anti-HSV-1 properties | – | no detectable anti-HIV activity
